{
  "source": "patent US7414036B2",
  "about": "“Compounds useful as A3 adenosine receptor agonists” (Muscagen Limited, priority 2002, dated 2008)",
  "key": {"[1]": {"target": "T1, human A3 receptors (Homo sapiens, UniProt P0DMS8)", "T1 construct": "expressed in transfected cells; host or cells: CHO cells (membrane preparations)", "T1 sequence (P0DMS8 1-318)": "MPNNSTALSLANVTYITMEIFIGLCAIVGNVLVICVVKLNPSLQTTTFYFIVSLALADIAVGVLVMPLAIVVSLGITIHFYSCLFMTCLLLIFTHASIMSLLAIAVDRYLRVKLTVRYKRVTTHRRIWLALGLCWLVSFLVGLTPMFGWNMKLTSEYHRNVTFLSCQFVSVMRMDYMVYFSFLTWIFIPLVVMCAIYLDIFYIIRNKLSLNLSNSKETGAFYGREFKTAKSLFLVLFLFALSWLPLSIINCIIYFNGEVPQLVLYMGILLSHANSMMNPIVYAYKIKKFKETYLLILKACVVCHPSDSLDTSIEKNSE", "assay": "A3 receptor radioligand binding, displacement of [125I]-AB-MECA", "conditions": "for IC50: displacement of [125I]-AB-MECA (0.3 nM), human A3 receptors expressed in CHO cells, membranes, 60 min room temperature; for % Displacement of [125I]-AB-MECA: human A3 receptors in CHO cells"}, "[2]": {"test_system": "A2 receptor", "assay": "A2 receptor functional activity, relaxation of isolated trachea pre-contracted with carbachol", "set-up": "species or system guinea-pig", "conditions": "for IC25, relaxation at A2 receptors of guinea-pig trachea: concentration for 25% of the maximum response to NECA, trachea precontracted with carbachol (100 nM)"}, "[3]": {"test_system": "guinea-pig isolated left atria", "assay": "Myocardial contractile dysfunction (stunning) after simulated ischaemia of isolated atria", "method": "The following experiment was carried out to evaluate the efficacy of compound 6 in protecting against myocardial contractile dysfunction (stunning) after simulated ischaemia of isolated atria.\nGuinea-pig isolated left atria were set up in tissue baths containing Krebs-bicarbonate solution gassed with 5% CO2 in oxygen at 37° C. and electrically paced at 2 Hz with pulses of threshold voltage +50% and 5 ms pulse width. Developed tension was recorded. After equilibrium, they were exposed to 30 min of simulated ischaemia by gassing with 5% CO2 in nitrogen and removing the glucose substrate which was replaced with choline chloride (7 mM) to maintain isotonicity. Pacing was continued throughout. After 30 min, the tissues were reoxygenated and glucose was returned. […] This partial recovery was the index of myocardial stunning. […] This timing was to simulate administration at the time of reperfusion induced by thrombolyic therapy following myocardial infarction."}, "[4]": {"assay": "Partition coefficient, propylene glycol dipelargonate (PGDP)/water model", "format": "physicochemical", "conditions": "21.2 °C; for Log P(s): partition solvent propylene glycol dipelargonate (PGDP)/water, neutral species", "text": "The partition measurements were based on a long chain ester (propylene glycol dipelargonate-PGDP)/water model."}, "[5]": {"assay": "pKa determination with co-solvent titrations", "format": "physicochemical", "conditions": "read-out: pKa (s)"}, "[6]": {"target": "T2, A1 receptor (Cavia porcellus, UniProt P47745)", "T2 construct": "from tissue; host or cells: guinea-pig isolated paced left atria", "T2 sequence (P47745 1-326)": "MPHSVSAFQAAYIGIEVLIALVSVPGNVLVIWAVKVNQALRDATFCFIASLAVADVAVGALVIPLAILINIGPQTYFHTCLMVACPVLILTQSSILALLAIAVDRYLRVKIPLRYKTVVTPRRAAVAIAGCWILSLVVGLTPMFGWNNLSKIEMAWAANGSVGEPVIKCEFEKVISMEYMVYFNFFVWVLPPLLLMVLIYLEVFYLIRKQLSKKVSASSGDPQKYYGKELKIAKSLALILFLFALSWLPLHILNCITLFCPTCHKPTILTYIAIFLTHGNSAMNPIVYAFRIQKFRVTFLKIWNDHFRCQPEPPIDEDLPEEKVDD", "assay": "A1 receptor functional activity, negative inotropic response of isolated paced left atria", "set-up": "species or system guinea-pig", "conditions": "for IC25, negative inotropic action at A1 receptors of guinea-pig atria: concentration for 25% of the maximum response to NECA, cumulative concentration-response curves"}, "[7]": {"conditions": "e.g. from about 70 mm Hg to about 90 mm Hg; cited from earlier work"}, "[8]": {"conditions": "empiric evidence; cited from earlier work"}},
  "note": "Where “and” joins values, the source holds several entries; their conditions need not be identical. Equal values may be shown once.",
  "data": [
    {"compound": "CNC(=O)[C@H]1O[C@@H](n2cnc3c(NCc4cc(I)ccn4)nc(C#Cc4ccccc4)nc32)[C@H](O)[C@@H]1O", "note": "[Compound 5, N^6-(4-iodo-2-picolyl)-2-(2-phenyl-1-ethynyl)-adenosine-5′-N-methyluronamide]", "values": [
      {"measurement": "IC50", "setting": "[1]", "value": "31 to 45", "unit": "nM"}
    ]},
    {"compound": "CNC(=O)[C@H]1O[C@@H](n2cnc3c(NCc4ccccn4)ncnc32)C(O)C1O", "note": "(stereo partly shown) [Compound 3, N^6-(2-picolyl)adenosine-5′-N-methyluronamide]", "values": [
      {"measurement": "melting point", "value": "84 to 86", "unit": "°C"},
      {"measurement": "IC50", "setting": "[1]", "value": 6, "unit": "nM"}
    ]},
    {"compound": "CNC(=O)[C@H]1O[C@@H](n2cnc3c(NCc4cc(I)c5oc(N(C)C)nc5c4)ncnc32)C(O)C1O", "note": "(stereo partly shown) [Compound 6, N^6-[(2-dimethylamino-7-iodo-1,3-benzoxazol-5-yl)-methyl]-adenosine-5′-N-methyluronamide]", "values": [
      {"measurement": "IC25, relaxation at A2 receptors of guinea-pig trachea", "setting": "[2]", "value": 9070, "unit": "nM"},
      {"measurement": "Selectivity for A3 receptors (radioligand binding) against A2 receptors (tracheal relaxation)", "setting": "[2]; ratio of tracheal functional value to A3 binding IC50", "value": "5.6×10^6"},
      {"measurement": "Maximum developed contractile tension (%), Post-ischaemic, Mean", "setting": "[3]; Compound 6 5 × 10^−9 M at reoxygenation, % of pre-ischaemic value, n=3", "value": 84.0, "unit": "%"},
      {"measurement": "Maximum developed contractile tension (%), Post-ischaemic, Mean", "setting": "[3]; Compound 6 5 × 10^−9 M at reoxygenation, % of pre-ischaemic value, n=3, listed as compound 6", "value": "84.0±18.0", "unit": "%"},
      {"measurement": "Maximum developed contractile tension, Post-ischaemic", "setting": "[3]; Compound 6 5 × 10^−9 M introduced at reoxygenation after 30 min simulated ischaemia, single experiments", "value": "0.72 g and 0.42 g and 0.40 g"},
      {"measurement": "Log D", "setting": "[4]; partition solvent PGDP/water", "value": 1.483},
      {"measurement": "Log P(s)", "setting": "[4]", "value": 1.484},
      {"measurement": "Log P(s)", "setting": "[4]; listed as compound 10", "value": "1.48±0.03"},
      {"measurement": "Potency for binding to the human A3 receptor (in words)", "setting": "[1]", "value": "picomolar potency"},
      {"measurement": "% Displacement of [125I]-AB-MECA", "setting": "[1]; Concentration (Log M) −7", "value": 94, "unit": "%"},
      {"measurement": "% Displacement of [125I]-AB-MECA", "setting": "[1]; Concentration (Log M) −9", "value": 79, "unit": "%"},
      {"measurement": "% Displacement of [125I]-AB-MECA", "setting": "[1]; Concentration (Log M) −10", "value": 73, "unit": "%"},
      {"measurement": "% Displacement of [125I]-AB-MECA", "setting": "[1]; Concentration (Log M) −11", "value": 68, "unit": "%"},
      {"measurement": "% Displacement of [125I]-AB-MECA", "setting": "[1]; Concentration (Log M) −12", "value": 47, "unit": "%"},
      {"measurement": "A3 binding potency compared with IB-MECA", "setting": "[1]; comparison of IC50 values of Table 1", "value": "approximately two orders of magnitude more potent"},
      {"measurement": "IC50", "setting": "[1]", "value": 0.0016, "unit": "nM"},
      {"measurement": "pKa", "setting": "[5]", "value": "3.66 ± 0.03"},
      {"measurement": "IC25, negative inotropic action at A1 receptors of guinea-pig atria", "setting": "[6]", "value": 1000, "unit": "nM"},
      {"measurement": "Selectivity for A3 receptors (radioligand binding) against A1 receptors (negative inotropy)", "setting": "[6]; ratio of atrial functional value to A3 binding IC50", "value": "6.25×10^6"},
      {"measurement": "IC50", "setting": "[6]; read-out: IC50, negative inotropic action at A1 receptors of guinea-pig atria", "value": 10000, "unit": "nM"}
    ]},
    {"compound": "CNC(=O)[C@H]1O[C@@H](n2cnc3c(NCc4ccc5oc(N(C)C)nc5c4)ncnc32)C(O)C1O", "note": "(stereo partly shown) [Compound 7, N^6-[(2-Dimethylamino-1,3-benzoxazol-5-yl)-methyl]-adenosine-5′-N-methyluronamide]", "values": [
      {"measurement": "melting point", "value": "239 to 241", "unit": "°C"},
      {"measurement": "IC50", "setting": "[1]", "value": 450, "unit": "nM"},
      {"measurement": "pKa", "setting": "[5]", "value": 3.61}
    ]},
    {"compound": "CNC(=O)[C@H]1O[C@@H](n2cnc3c(NCc4cccc(I)c4)ncnc32)[C@H](O)[C@@H]1O", "note": "[IB-MECA]", "values": [
      {"measurement": "Increase in basal or systemic blood pressure", "setting": "[7]", "value": "10-30%"},
      {"measurement": "Maximum developed contractile tension (%), Post-ischaemic, Mean", "setting": "[3]; IB-MECA 3 × 10^−7 M at reoxygenation, % of pre-ischaemic value, 6 experiments", "value": "66.5±6.5% and 66.5%"},
      {"measurement": "Maximum developed contractile tension (%), Post-ischaemic", "setting": "[3]; IB-MECA 3 × 10^−7 M at reoxygenation, % of pre-ischaemic value, single experiments", "value": "83.3% and 45.5% and 60% and 63% and 87.5%"}
    ]},
    {"compound": "CNC(=O)[C@H]1O[C@@H](n2cnc3c(NCc4cc(C)ccn4)ncnc32)C(O)C1O", "note": "(stereo partly shown) [Compound 1, N^6-(4-methyl-2-picolyl)-adenosine-5′-N-methyluronamide]", "values": [
      {"measurement": "IC50", "setting": "[1]", "value": 2.2, "unit": "nM"}
    ]},
    {"compound": "CC(C)NCC(O)COc1cccc2ccccc12", "note": "(stereo not shown) [propranolol]", "values": [
      {"measurement": "Effective partition after allowing for protonation, log10 PGDP/H2O scale", "setting": "[8]", "value": "~0.8"}
    ]},
    {"compound": "N^6-(4-iodo-2-picolyl)-adenosine-5′-N-methyluronamide [Compound 2]", "values": [
      {"measurement": "IC50", "setting": "[1]", "value": 0.45, "unit": "nM"}
    ]},
    {"compound": "CCNC(=O)[C@H]1O[C@@H](n2cnc3c(N)ncnc32)[C@H](O)[C@@H]1O", "note": "[NECA, N-ethylcarboxamidoadenosine, reference compound]", "values": [
      {"measurement": "IC25, relaxation at A2 receptors of guinea-pig trachea", "setting": "[2]", "value": 940, "unit": "nM"},
      {"measurement": "IC25, negative inotropic action at A1 receptors of guinea-pig atria", "setting": "[6]", "value": 52, "unit": "nM"}
    ]},
    {"compound": "CNC(=O)[C@H]1O[C@@H](n2cnc3c(NCc4cc(I)c5oc(N(C)C)nc5c4)nc(C#Cc4ccccc4)nc32)[C@H](O)[C@@H]1O", "note": "[Compound 8, N^6-[(2-dimethylamino-7-iodo-1,3-benzoxazol-5-yl)-methyl]-2-(2-phenyl-1-ethynyl)-adenosine-5′-N-methyluronamide]", "values": [
      {"measurement": "IC50", "setting": "[1]", "value": "21 to 80", "unit": "nM"}
    ]},
    {"compound": "CNC(=O)[C@H]1O[C@@H](n2cnc3c(NCc4cccc(C(C)=O)n4)ncnc32)C(O)C1O", "note": "(stereo partly shown) [Compound 4, N^6-(6-acetyl-2-picolyl)adenosine-5′-N-methyluronamide]", "values": [
      {"measurement": "melting point", "value": "226 to 228", "unit": "°C"},
      {"measurement": "IC50", "setting": "[1]", "value": 0.4, "unit": "nM"}
    ]}
  ]
}
